Patent US20230166255A1, “Methods And Devices For Detection Of Anticoagulants In Plasma And Whole Blood” (Massachusetts Institute of Technology, priority 2017, published 2023)
Like-named read-outs stand apart in the source and are kept apart here.

What was measured:
[1] = target: Factor Xa (Homo sapiens, UniProt P00742); assay: Clot detection in whole blood in parallel microfluidic channel device pre-coated with Factor Xa; format: biochemical; settings: whole blood with unfractionated heparin, 10 minutes
Sequence of Factor Xa (P00742 235-488 limits assumed): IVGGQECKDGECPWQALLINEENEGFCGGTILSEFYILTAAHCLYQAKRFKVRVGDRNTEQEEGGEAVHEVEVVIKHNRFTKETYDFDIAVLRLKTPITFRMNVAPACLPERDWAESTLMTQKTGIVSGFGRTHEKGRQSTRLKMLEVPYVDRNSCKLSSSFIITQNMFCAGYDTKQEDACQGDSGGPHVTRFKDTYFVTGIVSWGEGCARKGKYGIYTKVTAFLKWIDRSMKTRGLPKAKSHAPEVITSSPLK
Sequence of Factor Xa (P00742 41-179 partner limits assumed): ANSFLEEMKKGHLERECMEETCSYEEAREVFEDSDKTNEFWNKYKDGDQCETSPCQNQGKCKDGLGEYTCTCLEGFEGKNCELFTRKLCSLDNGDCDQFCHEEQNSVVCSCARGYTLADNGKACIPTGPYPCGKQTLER
Protocol: FIGS. 4A and 4B are fluorescent images illustrating clot detection using whole blood in a parallel microfluidic channel device 410 according to an example embodiment. Microfluidic channels 420 were pre-coated with agonist, Factor Xa, at various concentrations (7.5 ng/mL, 75 ng/mL, 750 ng/mL) or with buffer alone (negative control). The fluorescent images are taken at one time point (10 minutes). Microfluidic channels were washed with buffer prior to use to leave only bound FXa within the microfluidic channel. Fresh whole blood was placed into each input port and the blood was drawn in through capillary action. The blood was left to flow for 10 minutes and then the channel was gently washed with buffer. Depicted is a brightfield image of two samples evaluated. […] Unfractionated heparin inhibits Factors IIa and Xa in an antithrombin III-dependent fashion, which is why the addition of these factors at appropriate concentrations can help recover the clotting capability of the sample.

[2] = target: FIIa (Homo sapiens, UniProt P00734)
Protocol: (§1) Clot detection agents can include fluorescent labeled fibrinogen, magnets, beads (may be fluorescent or colored) • b) Load into microfluidic device • i. See, e.g., FIGS. 1A-1D, 2A and 2B for examples of input loading configuration and order • c) Temperature control • i. Room temperature • ii. May increase up to 37° C.
(§2) The time it takes for each of the combinations to form a clot is then plotted. […] Concentration of the agonist (FXa for FIGS. 7A-7C, and FIIa for FIG. 7D) is plotted on the X-axis for each of the figures.

[3] = target: FXa (Homo sapiens, UniProt P00742); assay: Clotting curves: clot detection time versus FXa agonist gradient (FIGS. 7A-7C); format: biochemical
Sequence of FXa (P00742 235-488 limits assumed): as the sequence (P00742 235-488 limits assumed) above
Sequence of FXa (P00742 41-179 partner limits assumed): as the sequence (P00742 41-179 partner limits assumed) above
Protocol: as §1, §2

unfractionated heparin
clot formation ([1]; channels coated with 7.5, 75, 750 ng/mL FXa): gradient of clot formation dependent on the concentration of FXa in the channel
clot formation ([1]; negative control channel (buffer alone, no FXa)): minimal clot formation

Dabigatran
clot formation detected (time) ([2]; 250 ng/mL Dabigatran, agonist (FIIa) concentration down to 710 ng/mL): < 2.5 min
clot formation detected (time) ([2]; 500 ng/mL Dabigatran, agonist (FIIa) down to 710 ng/mL): < 2.5 min
clot formation detected (time) ([2]; < 25 ng/mL Dabigatran, agonist (FIIa) concentration down to 71 ng/mL): < 2.5 min

O=C(NC[C@H]1CN(c2ccc(N3CCOCC3=O)cc2)C(=O)O1)c1ccc(Cl)s1 [Rivaroxaban]
clot formation time ([3]; 250 ng/mL Rivaroxaban, agonist (FXa) concentration down to 375 ng/mL): significantly longer than the negative control but lower than 500 ng/mL
clot formation detected (time) ([3]; 500 ng/mL Rivaroxaban, agonist (FXa) down to 750 ng/mL): < 2.5 min
